Where “and” joins values, the source holds several entries; their conditions need not be identical. Equal values may be shown once.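 These data come from cells grown in 96-well plates and exposed to compound for 48 hours at five concentrations. At the GI50, growth is halved. The concentration for full growth arrest is given as TGI.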
What was measured:
Assay in all cases: inhibition of tumour cell growth, NCI panel, 48 h
MDA-MB-231 breast = system: MDA-MB-231 breast
DU-145 prostate = system: DU-145 prostate
DMS 114 small cell lung = system: DMS 114 small cell lung
RXF-631 renal = system: RXF-631 renal
DLD-1 colon = system: DLD-1 colon
XF 498 CNS = system: XF 498 CNS
MDA-N = system: MDA-N

Row | Compound | GI50 (MDA-MB-231 breast) | TGI (MDA-MB-231 breast) | GI50 (DU-145 prostate) | TGI (DU-145 prostate) | TGI (DMS 114 small cell lung) [µM] | TGI (RXF-631 renal) [µM] | TGI (DLD-1 colon) [µM] | TGI (XF 498 CNS) [µM] | TGI (MDA-N) [µM]
1 | O=C1NC(=O)C(c2cnc3ccccn23)=C1c1cn2c3c(cc(F)cc13)CN(C(=O)N1CCCCC1)CC2 | 11.4 µM | 33.1 µM | 12.7 µM | 39.7 µM |  |  |  |  | 
2 | CN(C)/C=N/c1nc2c(ncn2C2OC(CO)C(O)C2O)c(=O)[nH]1 (configuration not stated) |  |  |  |  | > 100 | > 100 | > 100 | > 100 | 
3 | CC(C)CCN1c2nc(Nc3cc(F)c(O)c(F)c3)ncc2N(C)C(=O)C1C (configuration not stated) | 5.17 µM | > 100 µM | 6.41 µM | 77.5 µM |  |  |  |  | 
4 | [Cl][Hg][c]1cc(Br)cc(Br)c1 | 1.79 µM | 3.89 µM | 2.77 µM | 10.6 µM |  |  |  |  | 
5 | O=C(CCn1[nH]c(=O)c(Cl)c(Cl)c1=O)NO |  |  |  |  | > 100 |  | > 100 | > 100 | 
6 | O=C(O)CCC(=O)c1ccc[nH]1 |  | > 100 µM |  | > 100 µM |  |  |  |  | > 100
7 | COC1(OC)CC2C(=O)N(Cc3ccccc3)C1C(S(=O)(=O)c1ccccc1)C2S(=O)(=O)c1ccccc1 (configuration not stated) |  |  |  |  | 16 | 32.6 | 13.3 |  | 
8 | Cc1cc([N+](=O)[O-])ccc1Nc1cccc(Cl)c1C |  |  |  |  | 28.9 | 31.3 | 33.5 |  | 
9 | C=C1C(=O)O[C@@H]2C[C@@H]1CC/C(C)=C/CC/C(C)=C/CC[C@@]2(C)O | 8.56 µM | 31.8 µM | 14 µM | 30.2 µM |  |  |  |  | 
10 | CC(C)=CCNc1ncnc2c1ncn2C1OC(CO)C(O)C1O (configuration not stated) | 1.52 µM | 9.33 µM | 0.277 µM | 0.943 µM |  |  |  |  | 
11 | CCCN=C(N)NC#N |  |  |  |  | 35.8 |  | > 100 |  | 
12 | CC1=C(C(=O)Nc2ccccc2)C(c2ccccc2)C(C(=O)Nc2ccccc2)=C(C)N1 |  |  |  |  | > 100 |  | > 100 |  | 
13 | N#CC(=C1C=CC(=NO)C=C1)c1ccccc1 | 1.73 µM | 5.17 µM | 1.58 µM | 4.05 µM |  |  |  |  | 
14 | CC1=NNC(=O)C2CCC(=O)N12 (configuration not stated) |  |  |  |  | > 100 | > 100 | > 100 |  | 
15 | Cn1cc(CO)c2c1C(=O)C=C(N1CC1)C2=O | 2.66 µM | 5.96 µM | < 0.01 µM | 0.131 µM |  |  |  |  | 
16 | CCOC(=O)C1(C#N)C(c2ccccc2)CC(O)(c2ccc(OC)cc2)C(C(=O)c2ccc(OC)cc2)C1c1ccccc1 (configuration not stated) |  |  |  |  | > 100 |  | > 100 |  | 
17 | OC[C@H]1C[C@](O)(c2ccc(Cl)cc2)[C@@H](c2ccc(Cl)cc2)O1 | 19.6 µM | 46.9 µM | 22.1 µM | 56.9 µM |  |  |  |  | 
18 | CCN(CC)c1ccc2c(c1)OC(N)=C(C#N)C2c1cc(OC)c2c(c1)OCO2 (configuration not stated) | 0.0557 µM | 2.73 µM | 0.0358 µM | 0.428 µM |  |  |  |  | 
19 | O=[N+]([O-])c1ccc(C2=Nn3cnnc3SC2)o1 |  |  |  |  | 28.8 | 28.1 | 41.4 | 30.2 | 
20 | Cc1cc(I)cc(CN(C)CCCN2CCCCCCC2)c1O | 14.9 µM | 29.6 µM | 17.8 µM | 38 µM |  |  |  |  | 
21 | COc1cc(C(Cc2ccccc2)NC(C)=O)oc(=O)c1 (configuration not stated) |  |  |  |  | > 100 |  | > 100 | > 100 | 

Row | Compound | GI50 (MDA-MB-231 breast) | TGI (MDA-MB-231 breast) | GI50 (DU-145 prostate) | TGI (DU-145 prostate) | TGI (DMS 114 small cell lung) [µM] | TGI (RXF-631 renal) [µM] | TGI (DLD-1 colon) [µM] | TGI (XF 498 CNS) [µM] | TGI (MDA-N) [µM]
22 | Cc1cc(CC(O)c2ccc(Cl)c(Cl)c2)nc(=O)[nH]1 (configuration not stated) |  |  |  |  | 26.8 |  | > 100 | 41.3 | 
23 | CCOc1ccccc1C=C1c2ccccc2C(=O)c2ccccc21 |  |  |  |  | 15.9 |  | > 100 |  | 
24 | CCN(CC)CCOc1ccc(-c2nc3cc(Cl)ccc3s2)cc1 | 1.47 µM | 2.92 µM |  |  |  |  |  |  | 
25 | Cc1c([N+](=O)[O-])ccc2c(NCCCN(C)C)ccnc12 |  | 56.6 µM |  | > 100 µM |  |  |  |  | 28.4
26 | CCN(CC)CCCC(CNc1ccnc2cc(Cl)ccc12)c1ccc(Cl)cc1 (configuration not stated) | 1.41 µM and 1.54 µM | 3.21 µM and 3.32 µM | 3.84 µM and 4.19 µM | 15.5 µM and 19 µM |  |  |  |  | 
27 | COC(=O)C(=Cc1cc(OC)ccc1OC)C(=O)OC |  |  |  |  | 53.1 | 88.3 | 91.3 | 47.4 | 
28 | COc1ccc(C(=O)C(c2ccc(OC)cc2)C2(O)C(=O)Nc3ccc([N+](=O)[O-])cc32)cc1 (configuration not stated) |  |  |  |  | > 100 |  | > 100 |  | 
29 | O=c1[nH]c(=O)n(C2OC(CO)C(O)C2O)cc1NN=NCc1ccccc1 (configuration not stated) |  |  |  |  | 99.1 | > 100 | > 77.4 | > 100 | 
30 | Cn1nc(N)c2cc([C@@H]3Nc4ccc5[nH]ncc5c4[C@H]4C5CCC(C5)[C@@H]34)ccc21 (some centres not stated) | 2.31 µM | 16.8 µM | 0.438 µM | 37.7 µM |  |  |  |  | 
31 | Cc1ccc(C)c(C2=C(c3cn(C)c4ccccc34)C(=O)NC2=O)c1 | > 25 µM | > 25 µM | > 20.2 µM | > 25 µM |  |  |  |  | 
32 | COc1cccc(/C=C/c2cc(OC)c(OC)c(OC)c2)c1 |  |  |  |  | > 100 | > 100 | > 100 | > 100 | 
33 | CC(=O)Nc1ccc(C(=O)NN2C(=O)CSC2c2ccc([N+](=O)[O-])cc2)cc1 (configuration not stated) |  | > 100 µM |  | > 100 µM |  |  |  |  | > 100
34 | Clc1nc2ccccc2nc1CI | 3.14 µM | 9.08 µM | 17.1 µM | 30.8 µM |  |  |  |  | 
35 | CC(=O)c1cccc(NC(=O)C(=O)NNc2n[nH]c(=S)n2N)c1 |  |  |  | 19.2 µM | 3.93 | 10.9 | 31.6 | 25.7 | 3.8
36 | CCN(CC)CC1CCCCCCCCCCC1=O (configuration not stated) |  |  |  |  | > 100 |  | > 100 | > 100 | 
37 | Cc1nc2c(-c3cnc(N)nc3)nc(N3CCOCC3)nc2n1C(C)C |  | > 4.14 µM and 27.1 µM |  | > 100 µM |  |  |  |  | 
38 | [N-]=[N+]=NC12CC3C4CC5CC3C(C1)C(C5)C4C2 |  |  |  |  | > 100 | > 100 | > 100 | > 100 | 
39 | CNC(=O)N(C)N=NCCCl |  | > 100 µM |  | > 100 µM | > 100 |  | > 100 |  | > 100
40 | CN(C)c1ccc(C(C=C2c3ccccc3Sc3ccccc32)=C(C#N)C#N)cc1 |  |  |  |  | > 100 | > 100 | > 100 | > 100 | 
41 | COC(=O)c1cc2c(s1)C(=O)c1ccccc1-2 |  |  |  |  | > 100 | > 100 | > 100 |  | 

Reference: PubChem BioAssay (NCI)
